Measurements taken from the Kinase Knowledgebase extract (Sharma et al. 2016).

Target: PIK3CG (human) (UniProt P48736)
Assay: Inhibition of PIK3CG Kinase Activity

Sequence of PIK3CG (human) (P48736 whole entry, looked up): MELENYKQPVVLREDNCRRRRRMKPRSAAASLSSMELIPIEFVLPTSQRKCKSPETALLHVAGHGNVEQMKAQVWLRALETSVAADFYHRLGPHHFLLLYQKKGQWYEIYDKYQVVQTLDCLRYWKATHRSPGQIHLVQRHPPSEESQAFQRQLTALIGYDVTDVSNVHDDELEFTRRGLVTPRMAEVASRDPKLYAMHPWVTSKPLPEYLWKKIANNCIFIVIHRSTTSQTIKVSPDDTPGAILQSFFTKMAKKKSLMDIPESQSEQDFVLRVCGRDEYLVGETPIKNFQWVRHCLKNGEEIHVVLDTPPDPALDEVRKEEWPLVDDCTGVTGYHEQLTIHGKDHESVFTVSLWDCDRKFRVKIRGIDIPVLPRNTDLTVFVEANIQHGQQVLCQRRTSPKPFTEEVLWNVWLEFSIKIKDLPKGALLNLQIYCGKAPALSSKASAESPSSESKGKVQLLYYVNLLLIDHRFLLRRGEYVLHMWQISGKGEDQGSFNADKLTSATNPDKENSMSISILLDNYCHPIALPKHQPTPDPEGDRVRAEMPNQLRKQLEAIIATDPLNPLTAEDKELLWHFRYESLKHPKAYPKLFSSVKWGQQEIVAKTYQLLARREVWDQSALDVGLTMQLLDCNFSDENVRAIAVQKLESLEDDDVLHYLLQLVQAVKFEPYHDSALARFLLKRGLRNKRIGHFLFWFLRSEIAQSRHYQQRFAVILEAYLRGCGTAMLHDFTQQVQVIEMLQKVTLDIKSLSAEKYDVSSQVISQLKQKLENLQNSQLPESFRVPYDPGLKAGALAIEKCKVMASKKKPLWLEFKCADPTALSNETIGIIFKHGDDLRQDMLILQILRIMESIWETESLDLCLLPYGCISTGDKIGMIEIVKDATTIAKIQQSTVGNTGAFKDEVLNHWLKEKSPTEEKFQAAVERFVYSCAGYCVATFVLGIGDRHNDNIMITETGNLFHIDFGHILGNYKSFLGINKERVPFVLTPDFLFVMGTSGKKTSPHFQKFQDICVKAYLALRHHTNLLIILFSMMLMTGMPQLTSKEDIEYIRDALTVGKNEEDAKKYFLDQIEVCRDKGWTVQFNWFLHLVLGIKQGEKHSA

IC50 | SMILES
< 800 nM | O=C(Nc1nc2c(s1)-c1c(cnn1-c1ccccc1Cl)C2)N1CCC(N2Cc3ccccc3NC2=O)C1 (stereo unspecified)
< 800 nM | O=C(NCc1cccc(N2CCNC2=O)c1)Nc1nc2c(s1)-c1c(cnn1-c1ccccc1C(F)(F)F)C2
< 800 nM | CCn1cnc(CCNC(=O)Nc2nc3c(s2)-c2c(cnn2-c2ccccc2Br)C3)c1
< 800 nM | O=C(NCc1cccnc1)Nc1nc2c(s1)-c1c(cnn1-c1ccccc1C(F)(F)F)C2
< 800 nM | Nc1cc(CCNC(=O)Nc2nc3c(s2)-c2c(cnn2-c2ccccc2C(F)(F)F)C3)nn1C1CCCCC1
< 800 nM | CN(C)C(=O)Nc1nc2c(s1)-c1c(cnn1-c1ccccc1Br)C2
< 800 nM | Nc1cc(CCNC(=O)Nc2nc3c(s2)-c2c(cnn2-c2ccccc2C(F)(F)F)C3)nn1-c1ccccc1
< 800 nM | O=C(NCc1cccc(N2CCNC2=O)c1)Nc1nc2c(s1)-c1c(cnn1-c1ccccc1Cl)C2
< 800 nM | O=C(NCc1nnc(-c2ccccc2)o1)Nc1nc2c(s1)-c1c(cnn1-c1ccccc1C(F)(F)F)C2
< 800 nM | CC(C)NC(=O)Nc1nc2c(s1)-c1c(cnn1-c1ccccc1C(F)(F)F)C2
< 800 nM | CCCCNC(=O)Nc1nc2c(s1)-c1c(cnn1-c1cccc(F)c1C(F)(F)F)C2
< 800 nM | CC(C)(NC(=O)Nc1nc2c(s1)-c1c(cnn1-c1ccccc1Cl)C2)C1Nc2ccccc2NC1=O (stereo unspecified)
< 800 nM | CCCn1cnc(CCNC(=O)Nc2nc3c(s2)-c2c(cnn2-c2ccccc2Br)C3)c1
< 800 nM | CC(C)n1nc(CNC(=O)Nc2nc3c(s2)-c2c(cnn2-c2ccccc2C(F)(F)F)C3)cc1N
< 800 nM | CN(CCc1cn[nH]c1)C(=O)Nc1nc2c(s1)-c1c(cnn1-c1ccccc1C(F)(F)F)C2
< 800 nM | CN(C)C(=O)CNC(=O)Nc1nc2c(s1)-c1c(cnn1-c1ccccc1Cl)C2
< 800 nM | CC(C)(C)OC(=O)NCc1cccc(CNC(=O)Nc2nc3c(s2)-c2c(cnn2-c2ccccc2Cl)C3)c1
< 800 nM | O=C(Nc1nc2c(s1)-c1c(cnn1-c1ccccc1Cl)C2)N1CCC2(CC1)C(=O)NCN2c1ccccc1
< 800 nM | CC(C)c1noc(CCNC(=O)Nc2nc3c(s2)-c2c(cnn2-c2ccccc2Cl)C3)n1
< 800 nM | CC(C)(C)OC(=O)CCNC(=O)Nc1nc2c(s1)-c1c(cnn1-c1cc(Cl)ccc1Cl)C2
< 800 nM | CCCCNC(=O)Nc1nc2c(s1)-c1c(cnn1-c1ccccc1Cl)C2
< 800 nM | CN(C)C(=O)CNC(=O)Nc1nc2c(s1)-c1c(cnn1-c1cc(Cl)ccc1Cl)C2
< 800 nM | CCc1cc(CC)n(CCNC(=O)Nc2nc3c(s2)-c2c(cnn2-c2ccccc2C(F)(F)F)C3)n1

IC50 | SMILES
< 800 nM | CC(C)(C)OC(=O)N1CCCC(CNC(=O)Nc2nc3c(s2)-c2c(cnn2-c2ccccc2Cl)C3)C1 (stereo unspecified)
< 800 nM | CN(C(=O)OC(C)(C)C)C1CCN(C(=O)Nc2nc3c(s2)-c2c(cnn2-c2ccccc2Cl)C3)C1 (stereo unspecified)
< 800 nM | CCCCn1nc(CCNC(=O)Nc2nc3c(s2)-c2c(cnn2-c2ccccc2C(F)(F)F)C3)cc1N
< 800 nM | CC(C)(C)OC(=O)N1CCC[C@H]1CNC(=O)Nc1nc2c(s1)-c1c(cnn1-c1ccccc1Cl)C2
< 800 nM | O=C(NCC1CCCN(c2ncccn2)C1)Nc1nc2c(s1)-c1c(cnn1-c1ccccc1Cl)C2 (stereo unspecified)
< 800 nM | O=C(Nc1nc2c(s1)-c1c(cnn1-c1ccccc1Cl)C2)Nc1ccccc1CN1CCNC1=O
< 800 nM | O=C(NCc1cocn1)Nc1nc2c(s1)-c1c(cnn1-c1ccccc1C(F)(F)F)C2
< 800 nM | CC(C)(C)OC(=O)N1CCC(CNC(=O)Nc2nc3c(s2)-c2c(cnn2-c2ccccc2Cl)C3)CC1
< 800 nM | CCOC(=O)Cn1nc(CCNC(=O)Nc2nc3c(s2)-c2c(cnn2-c2ccccc2C(F)(F)F)C3)cc1N
< 800 nM | NC(=O)Nc1nc2c(s1)-c1c(cnn1-c1ccccc1C(F)(F)F)C2
< 800 nM | O=C(NCCO)Nc1nc2c(s1)-c1c(cnn1-c1ccccc1C(F)(F)F)C2
< 800 nM | CC(=O)NCC1CCCN(C(=O)Nc2nc3c(s2)-c2c(cnn2-c2ccccc2Cl)C3)C1 (stereo unspecified)
< 800 nM | O=C(NCCc1ccncc1)Nc1nc2c(s1)-c1c(cnn1-c1ccccc1Cl)C2
< 800 nM | Cc1cc(=O)n(CCNC(=O)Nc2nc3c(s2)-c2c(cnn2-c2ccccc2C(F)(F)F)C3)[nH]1
< 800 nM | O=C(NCCc1cn[nH]c1)Nc1nc2c(s1)-c1c(cnn1-c1ccccc1Cl)C2
< 800 nM | CC(C)(C)OC(=O)NC1CCN(C(=O)Nc2nc3c(s2)-c2c(cnn2-c2ccccc2Cl)C3)C1 (stereo unspecified)
< 800 nM | CNC(=O)Nc1nc2c(s1)-c1c(cnn1-c1ccccc1Br)C2
< 800 nM | CCc1cnc(CCNC(=O)Nc2nc3c(s2)-c2c(cnn2-c2ccccc2C(F)(F)F)C3)o1
< 800 nM | CCn1ccc(CNC(=O)Nc2nc3c(s2)-c2c(cnn2-c2ccccc2C(F)(F)F)C3)n1
< 800 nM | O=C(NCc1nnn[nH]1)Nc1nc2c(s1)-c1c(cnn1-c1ccccc1Br)C2
< 800 nM | CCn1nc(CCNC(=O)Nc2nc3c(s2)-c2c(cnn2-c2ccccc2C(F)(F)F)C3)cc1N
< 800 nM | O=C(NCc1ccc(CN2CCNC2=O)cc1)Nc1nc2c(s1)-c1c(cnn1-c1ccccc1Cl)C2
< 800 nM | CCCNC(=O)Nc1nc2c(s1)-c1c(cnn1-c1ccc(C(=O)NC)cc1C(F)(F)F)C2

IC50 | SMILES
< 800 nM | O=C(Nc1nc2c(s1)-c1c(cnn1-c1ccccc1Cl)C2)N1CCCC(c2nc3ccccc3[nH]2)C1 (stereo unspecified)
< 800 nM | CC(C)(C)OC(=O)CCNC(=O)Nc1nc2c(s1)-c1c(cnn1-c1ccccc1C(F)(F)F)C2
< 800 nM | CCNC(=O)Nc1c(CCNC(=O)Nc2nc3c(s2)-c2c(cnn2-c2ccccc2C(F)(F)F)C3)cnn1C
< 800 nM | O=C(NCCc1ccccc1)Nc1nc2c(s1)-c1c(cnn1-c1ccccc1Cl)C2
< 800 nM | Nc1cc(CNC(=O)Nc2nc3c(s2)-c2c(cnn2-c2ccccc2C(F)(F)F)C3)[nH]n1
< 800 nM | CCc1cnc(CCNC(=O)Nc2nc3c(s2)-c2c(cnn2-c2ccccc2Cl)C3)o1
< 800 nM | Nc1cc(-c2ccccc2)nn1CCNC(=O)Nc1nc2c(s1)-c1c(cnn1-c1ccccc1C(F)(F)F)C2
< 800 nM | O=C(Nc1nc2c(s1)-c1c(cnn1-c1ccccc1Cl)C2)N1CCCC(C(O)c2ccccc2)C1 (stereo unspecified)
< 800 nM | O=C(NCc1ccccc1-n1cccn1)Nc1nc2c(s1)-c1c(cnn1-c1ccccc1Cl)C2
< 800 nM | O=C(NCC1CC1)Nc1nc2c(s1)-c1c(cnn1-c1cccc(F)c1C(F)(F)F)C2
< 800 nM | Cc1nn(C)cc1CNC(=O)Nc1nc2c(s1)-c1c(cnn1-c1ccccc1C(F)(F)F)C2
< 800 nM | CCCn1nc(CCNC(=O)Nc2nc3c(s2)-c2c(cnn2-c2ccccc2C(F)(F)F)C3)cc1N
< 800 nM | CCCNC(=O)Nc1nc2c(s1)-c1c(cnn1-c1ccccc1C(F)(F)F)C2
< 800 nM | CCOC(=O)CNC(=O)Nc1nc2c(s1)-c1c(cnn1-c1ccccc1C(F)(F)F)C2
< 800 nM | O=C(NCCc1ccccn1)Nc1nc2c(s1)-c1c(cnn1-c1ccccc1Cl)C2
< 800 nM | Nc1cc(CCNC(=O)Nc2nc3c(s2)-c2c(cnn2-c2ccccc2C(F)(F)F)C3)nn1Cc1ccccc1
< 800 nM | O=C(NCc1cc(C2CC2)n[nH]1)Nc1nc2c(s1)-c1c(cnn1-c1ccccc1Cl)C2
< 800 nM | CC(C)(C)OC(=O)N1CCC[C@@H]1CNC(=O)Nc1nc2c(s1)-c1c(cnn1-c1ccccc1C(F)(F)F)C2
< 800 nM | CCc1nnc(CCNC(=O)Nc2nc3c(s2)-c2c(cnn2-c2ccccc2Cl)C3)o1
< 800 nM | CC(C)Cn1cnc(CCNC(=O)Nc2nc3c(s2)-c2c(cnn2-c2ccccc2C(F)(F)F)C3)c1
< 800 nM | CCNC(=O)Nc1nc2c(s1)-c1c(cnn1-c1cccc(F)c1C(F)(F)F)C2
< 800 nM | Cn1cc(CNC(=O)Nc2nc3c(s2)-c2c(cnn2-c2ccccc2Cl)C3)cn1
< 800 nM | CC(C)(C)OC(=O)N1CCC[C@@H]1CNC(=O)Nc1nc2c(s1)-c1c(cnn1-c1ccccc1Cl)C2

IC50 | SMILES
< 800 nM | Nc1nnc(CNC(=O)Nc2nc3c(s2)-c2c(cnn2-c2ccccc2C(F)(F)F)C3)[nH]1
< 800 nM | CCn1cnc(CCNC(=O)Nc2nc3c(s2)-c2c(cnn2-c2ccccc2C(F)(F)F)C3)c1
< 800 nM | CN(C)C(=O)Nc1nc2c(s1)-c1c(cnn1-c1ccccc1C(F)(F)F)C2
< 800 nM | CC(C)c1noc(CCNC(=O)Nc2nc3c(s2)-c2c(cnn2-c2ccccc2C(F)(F)F)C3)n1
< 800 nM | Cn1nc(CNC(=O)Nc2nc3c(s2)-c2c(cnn2-c2ccccc2C(F)(F)F)C3)cc1N
< 800 nM | O=C(O)CC1(CNC(=O)Nc2nc3c(s2)-c2c(cnn2-c2ccccc2Cl)C3)CCCCC1
< 800 nM | CC(C)(C)n1nc(CCNC(=O)Nc2nc3c(s2)-c2c(cnn2-c2ccccc2C(F)(F)F)C3)cc1N
< 800 nM | O=C(NCCCN1CCNC1=O)Nc1nc2c(s1)-c1c(cnn1-c1ccccc1Cl)C2
< 800 nM | O=C1Cc2ccccc2CN1CC1CCN(C(=O)Nc2nc3c(s2)-c2c(cnn2-c2ccccc2Cl)C3)C1 (stereo unspecified)
< 800 nM | CC(C)(O)Cn1cnc(CCNC(=O)Nc2nc3c(s2)-c2c(cnn2-c2ccccc2C(F)(F)F)C3)c1
< 800 nM | Cn1cc(CNC(=O)Nc2nc3c(s2)-c2c(cnn2-c2ccccc2C(F)(F)F)C3)cn1
< 800 nM | O=C(NCc1nnn[nH]1)Nc1nc2c(s1)-c1c(cnn1-c1ccccc1Cl)C2
< 800 nM | O=C(NCCc1cn[nH]c1)Nc1nc2c(s1)-c1c(cnn1-c1ccccc1C(F)(F)F)C2
< 800 nM | Nc1cc(CCNC(=O)Nc2nc3c(s2)-c2c(cnn2-c2ccccc2C(F)(F)F)C3)nn1CCO
< 800 nM | CCCNC(=O)Nc1nc2c(s1)-c1c(cnn1-c1cc(Cl)ccc1Cl)C2
< 800 nM | O=C(Nc1nc2c(s1)-c1c(cnn1-c1ccccc1Cl)C2)N1CCCC(c2ccccc2O)C1 (stereo unspecified)
< 800 nM | Nc1cc(CNC(=O)Nc2nc3c(s2)-c2c(cnn2-c2ccccc2C(F)(F)F)C3)nn1C1CCCC1
< 800 nM | O=C(NCc1cc(C2CC2)n[nH]1)Nc1nc2c(s1)-c1c(cnn1-c1ccccc1C(F)(F)F)C2
< 800 nM | CC(C)c1nnc(CCNC(=O)Nc2nc3c(s2)-c2c(cnn2-c2ccccc2C(F)(F)F)C3)o1
< 800 nM | O=C(NCc1cccs1)Nc1nc2c(s1)-c1c(cnn1-c1ccccc1C(F)(F)F)C2
< 800 nM | CCNC(=O)Nc1nc2c(s1)-c1c(cnn1-c1ccccc1Br)C2
< 800 nM | O=C(NCc1cc(C2CC2)n[nH]1)Nc1nc2c(s1)-c1c(cnn1-c1cccc(F)c1C(F)(F)F)C2
